From article PMC10141580, “Cyclic Dichalcogenides Extend the Reach of Bioreductive Prodrugs to Harness Thiol/Disulfide Oxidoreductases: Applications to seco-Duocarmycins Targeting the Thioredoxin System” (ACS Central Science, 2023)
Where “and” joins values, the source holds several entries; their conditions need not be identical. Equal values may be shown once. Read-outs that look alike come from different tables or passages of the source.

Test system: panel of 140 standard cancer cell lines
Test: ProliFiler-140 cancer cell line screen (CellTiterGlo, 72 h)
Type: cell-based
Description: Incubations were performed for 72 h before automated viability readout with CellTiterGlo (Figure 8).
End of Figure S11 (part 5 of 5): ProliFiler-140 cancer cell line screening for cytotoxicity of the prodrugs.
8-data-point dose response curves from CellTiter-Glo® viability readout.
ProliFiler-140 cell line panel part V

COc1cc2cc(C(=O)N3C[C@@H](CCl)c4c3cc(OC(=O)N3CCN(C(=O)CCC(=O)N5CCN(C)CC5)[C@H]5CSSC[C@H]53)c3ccccc43)[nH]c2c(OC)c1OC [P-SS66C-CBI-TMI]
Reductive Activation Index (KG-1 a (Blood)): 5.16
Reductive Activation Index (Kato III (Stomach)): 7.4
Reductive Activation Index (LN229 (Brain)): 5.44
IC50 (LOU-NH91, read-out: IC50 [M] (ProliFiler-140), LOU-NH91 (Lung)): 3.5e-08 M
Reductive Activation Index (LnCap (Prostate)): 33
Reductive Activation Index (M07e (Blood)): 4.26
IC50 (M-07e, read-out: IC50 [M] (ProliFiler-140), M07e (Blood)): 3.25e-08 M
Reductive Activation Index (MCAS (Ovary)): 5.9 and 5.91
Reductive Activation Index (MDA MB 231 (Breast)): 5.44
Reductive Activation Index (MDA MB 435 (Skin)): 8.6
IC50 (MDA MB 435 (Skin); read-out: IC50 [M] (ProliFiler-140)): 1.26e-07 M
Reductive Activation Index (MKN-1 (Stomach)): 11.1
Reductive Activation Index (MKN-45 (Stomach)): 5.93
Reductive Activation Index (Mia PaCA 2 (Pancreas)): 4.38
Reductive Activation Index (NALM-6 (Blood)): 22.62 and 23
Reductive Activation Index (NCI-H82 (Lung)): 8.5
Reductive Activation Index (NCI-H441 (Lung)): 5.81
Reductive Activation Index (NCI-H838 (Lung)): 10
Reductive Activation Index (NCI-H1563 (Lung)): 15
Reductive Activation Index (NCI-H1573 (Lung)): 12
Reductive Activation Index (NCI-H1703 (Lung)): 16
Reductive Activation Index (NCI-H1838 (Lung)): 11
IC50 (NCI-H2110, read-out: IC50 [M] (ProliFiler-140), NCI-H2110 (Lung)): 1.8e-08 M
Reductive Activation Index (NCI-N87 (Stomach)): 15
Reductive Activation Index (OCI-AML5 (Blood)): 5.7 and 5.67
Reductive Activation Index (OCI-LY19 (Blood)): 5.41
Reductive Activation Index (OPM-2 (Blood)): 25.37
Reductive Activation Index (OV56 (Ovary)): 2.79
IC50 (OV56, read-out: IC50 [M] (ProliFiler-140), OV56 (Ovary)): 7.25e-08 M
Reductive Activation Index (OVCAR-3 (Ovary)): 13
Reductive Activation Index (OVK18 (Ovary)): 4.38
IC50 (OVK18, read-out: IC50 [M] (ProliFiler-140), OVK18 (Ovary)): 4.57e-08 M
Reductive Activation Index (PANC-1 (Pancreas)): 6.9
Reductive Activation Index (RERF-LC-Ad2 (Lung)): 5.5 and 5.54
IC50 (RERF-LC-Ad2, read-out: IC50 [M] (ProliFiler-140), RERF-LC-Ad2 (Lung)): 1.4e-07 M
Reductive Activation Index (RL95-2 (Endometrium)): 5.93
Reductive Activation Index (SCLC-21H (Lung)): 6.16
Reductive Activation Index (SJSA-1 (Bone)): 3.87
Reductive Activation Index (SK-MEL-3 (Skin)): 6.6
Reductive Activation Index (SK-N-FI (Brain)): 4.91
Reductive Activation Index (SK-N-SH (Brain)): 6.5
Reductive Activation Index (SNU840 (Ovary)): 1.11
Reductive Activation Index (SNU-216 (Stomach)): 19.98 and 20
IC50 (SNU-216, read-out: IC50 [M] (ProliFiler-140), SNU-216 (Stomach)): 9.22e-08 M
IC50 (SNU-840, read-out: IC50 [M] (ProliFiler-140), SNU840 (Ovary)): 6.29e-08 M
Reductive Activation Index (SU-DHL-5 (Blood)): 19 and 19.50
Reductive Activation Index (SW480 (Colon)): 6.01
Reductive Activation Index (SW620 (Colon)): 4.55
Reductive Activation Index (SW948 (Colon)): 4.75
Reductive Activation Index (Saos-2 EC (Bone)): 3.52
Reductive Activation Index (SiHa (Ovary)): 5.41
Reductive Activation Index (T84 (Colon)): 5.69 and 5.7
Reductive Activation Index (T-47D (Breast)): 11
Reductive Activation Index (U2OS (Bone)): 4.10
Reductive Activation Index (U87MG (Brain)): 8.0
Reductive Activation Index (U118MG (Brain)): 2.11
Reductive Activation Index (U251MG (Brain)): 17
Reductive Activation Index (U-937 (Blood)): 6.40
Reductive Activation Index (ZR-75-1 (Breast)): 4.62 and 4.6
IC50 (read-out: IC50 [M] (ProliFiler-140), BEN (Lung)): 5.3e-08 M
IC50 (read-out: IC50 [M] (ProliFiler-140), H4 (Brain)): 1.39e-08 M
IC50 (read-out: IC50 [M] (ProliFiler-140), Hep3B2.1-7 (Liver)): 1.7e-07 M
IC50 (read-out: IC50 [M] (ProliFiler-140), J82 (Bladder)): 9.55e-08 M
IC50 (read-out: IC50 [M] (ProliFiler-140), KG-1 (Blood)): 1.92e-07 M
IC50 (read-out: IC50 [M] (ProliFiler-140), LP-1 (Blood)): 1e-07 M
IC50 (read-out: IC50 [M] (ProliFiler-140), MCAS (Ovary)): 1.4e-07 M
IC50 (read-out: IC50 [M] (ProliFiler-140), PC3 (Prostate)): 4.01e-08 M
IC50 (read-out: IC50 [M] (ProliFiler-140), PC-9 (Lung)): 1.4e-08 M
IC50 (read-out: IC50 [M] (ProliFiler-140), RERF-LC-MS (Lung)): 3.07e-08 M
IC50 (read-out: IC50 [M] (ProliFiler-140), RKO (Colon)): 2.13e-08 M
IC50 (read-out: IC50 [M] (ProliFiler-140), SCH (Stomach)): 1.5e-08 M
IC50 (read-out: IC50 [M] (ProliFiler-140), T84 (Colon)): 1.6e-07 M
IC50 (read-out: IC50 [M] (ProliFiler-140); 786-O (Kidney)): 2.9e-08 M
IC50 (read-out: IC50 [M] (ProliFiler-140); A375 (Skin)): 5.5e-08 M
IC50 (read-out: IC50 [M] (ProliFiler-140); A427 (Lung)): 4.42e-08 M
IC50 (read-out: IC50 [M] (ProliFiler-140); A431 (Skin)): 2e-08 M
IC50 (read-out: IC50 [M] (ProliFiler-140); A498 (Kidney)): 9.4e-08 M
IC50 (read-out: IC50 [M] (ProliFiler-140); A549 (Lung)): 3.03e-08 M
IC50 (read-out: IC50 [M] (ProliFiler-140); A2058 (Skin)): 1.09e-08 M
IC50 (read-out: IC50 [M] (ProliFiler-140); A2780 (Ovary)): 8.13e-09 M
IC50 (read-out: IC50 [M] (ProliFiler-140); AsPC-1 (Pancreas)): 2.62e-07 M
IC50 (read-out: IC50 [M] (ProliFiler-140); BEN (Lung)): 5.35e-08 M
IC50 (read-out: IC50 [M] (ProliFiler-140); BT-20 (Breast)): 1.22e-07 M
